Experimental data reported in patent US10759816B2, “Heterocyclic compounds as RSV inhibitors” (Enanta Pharmaceuticals, Inc., priority 2016, dated 2020).

tested on: genotype A, "Long" strain RSV; assay: RSV-A in vitro cytoprotection assay in HEp-2 cells (ATPlite readout of cell viability); type: cell-based, Human respiratory syncytial virus; settings: human respiratory syncytial virus, HEp-2, HEp-2 cells, genotype A “Long” strain RSV, cytoprotection; read-out: Human RSV-A (“Long” strain) EC50
Method in brief: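 Cytoprotection measured as ATP-based luminescence (ATPlite) after 4-day incubation of RSV Long-infected HEp-2 cells (8,000/well, 10% FBS DMEM) with 2-fold serial compound dilutions in duplicate. Identically treated virus-free plate gives cytotoxicity; EC50 calculated from viability.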

Row | SMILES | EC50 [nM]
1 | Cc1cccc(F)c1NC(=O)c1cc2c(s1)-c1cc(F)ccc1N(C(=O)c1cccc(N3CCOc4ccccc4C3)n1)CC2 [Example 395] | < 400
2 | O=C(NC1CC1)c1cc2c(s1)-c1ccccc1N(C(=O)c1cc(N3CCOCC3)ncn1)CC2 [Example 49] | > 800
3 | Cc1cc(CNc2cccc(C(=O)N3CCc4cc(C(=O)Nc5c(C)cccc5F)sc4-c4ccccc43)n2)on1 [Example 349] | < 400
4 | Cc1cccc(F)c1NC(=O)c1cc2c(s1)-c1ccccc1N(C(=O)c1cccc(-c3coc4ccccc34)n1)CC2 [Example 256] | < 400
5 | Cc1cccc(F)c1NC(=O)c1cc2c(s1)-c1ccccc1N(C(=O)c1cccc(N(C)Cc3ccncc3)n1)CC2 [Example 339] | < 400
6 | CNC(=O)c1cc2c(s1)-c1ccccc1N(C(=O)c1cccc(N3CCCOCC3)n1)CC2 [Example 98] | < 400
7 | Cc1cnc(N2CC3(CCOC3)C2)c(NC(=O)c2ccc(C(=O)N3CCc4cc(C(=O)Nc5c(C)cccc5F)sc4-c4ccccc43)cc2)c1 [Example 140] | > 800
8 | CCN(CCOC)c1cccc(C(=O)N2CCc3cc(C(=O)Nc4c(C)cccc4F)sc3-c3ccccc32)n1 [Example 348] | < 400
9 | Cc1cccc(F)c1NC(=O)c1cc2c(s1)-c1ccccc1N(C(=O)c1cccc(N3CCS(=O)(=O)C(C)(C)C3)n1)CC2 [Example 431] | < 400
10 | O=C(NC1CC1)c1cc2c(s1)-c1ccccc1N(C(=O)c1cccc(N3CCOCC(C(=O)N4CCOCC4)C3)n1)CC2 (stereo not shown) [Example 285] | > 800
11 | Cc1cccc(F)c1NC(=O)c1cc2c(s1)-c1ccccc1N(C(=O)c1cccc(N3CCOc4ccc(Br)cc4C3)n1)CC2 [Example 367] | < 400
12 | O=C(NC1CCOCC1)c1cc2c(s1)-c1ccccc1N(C(=O)c1cccc(-c3c[nH]nc3C3CC3)n1)CC2 [Example 180] | < 400
13 | O=C(NC1CC1)c1cc2c(s1)-c1ccccc1N(C(=O)c1cccc(-c3cccc(N4CCOCC4)c3)n1)CC2 [Example 67] | > 800
14 | O=C(NC1CCOCC1)c1cc2c(s1)-c1ccccc1N(C(=O)c1cccc(N3CCOc4ccccc4C3)n1)CC2 [Example 307] | < 400
15 | CS(=O)(=O)N1CCCc2cc(C(=O)N3CCc4cc(C(=O)NC5CC5)sc4-c4ccccc43)ccc21 [Example 9] | > 800
16 | Cc1cccc(F)c1NC(=O)c1cc2c(s1)-c1ccccc1N(C(=O)c1cccc(NCC(C)(C)S(C)(=O)=O)n1)CC2 [Example 465] | 400 to 800
17 | O=C(NC1CC1)c1cc2c(s1)-c1ccccc1N(C(=O)c1cccc(-n3cnc4ncccc43)n1)CC2 [Example 121] | > 800
18 | Cc1cc(-c2cccc(C(=O)N3CCc4cc(C(=O)Nc5c(C)cccc5F)sc4-c4ccccc43)n2)n(C)n1 [Example 234] | < 400
19 | O=C(NC1CC1)c1cc2c(s1)-c1ccccc1N(C(=O)c1cccc(-c3ccc(C4CC4)nc3)n1)CC2 [Example 77] | 400 to 800
20 | O=C(NC1CC1)c1cc2c(s1)-c1ccccc1N(C(=O)c1cccc(N3CCOc4ccccc4C3)n1)CC2 [Example 32] | < 400
21 | Cc1cccc(F)c1NC(=O)c1cc2c(s1)-c1ccc(F)cc1N(C(=O)c1cccc(-c3c[nH]c4ncc(F)cc34)n1)CC2 [Example 169] | < 400
22 | O=C(NC1CC1)c1cc2c(s1)-c1ccccc1N(C(=O)c1cccc(-c3ccc(N4CCCC4)nc3)n1)CC2 [Example 80] | > 800
23 | O=C(NC1CC1)c1cc2c(s1)-c1ccccc1N(C(=O)c1cccc(-c3cnc(N4CCOCC4)c(F)c3)n1)CC2 [Example 92] | 400 to 800
24 | Cc1cccc(F)c1NC(=O)c1cc2c(s1)-c1ccccc1N(C(=O)c1cccc(N(C)Cc3cccc(-c4cccnc4)c3)n1)CC2 [Example 351] | > 800
25 | O=C(Nc1cc2c(s1)-c1ccccc1N(C(=O)c1cccc(N3CCOc4ccccc4C3)n1)CC2)NC1CC1 [Example 312] | > 800
